{
  "source": "patent US20090082353A1",
  "about": "“TREATMENT OF EPILEPSY WITH NON-IMIDAZOLE ALKYLAMINES HISTAMINE H3-RECEPTOR LIGANDS” (priority 2005, published 2009)",
  "key": {"[1]": {"system": "pharmacoresistant epilepsy", "test": "clinical study in pharmacoresistant epileptic patients", "type": "in vivo, human", "conditions": "20 to 40 mg/day during 3 months", "method": "A clinical study has confirmed the efficiency of the compounds of the invention in treating pharmacoresistant epilepsy. Epileptic patients were enrolled. Those patients suffered from highly frequent seizures (generally more than 10 seizures monthly) despite their treatment consisting in one or more usual anti-epileptic drug of various classes (barbiturics, depakine, lamotrigine, gabapenine, benzodiazepines . . . ). Patients were administered with 3-(4-Chlorophenyl)propyl 3-piperidinopropyl ether at doses comprised between 20 and 40 mg/day during 3 months. Seizures frequency was reduced by 50% in a significant number of patients."}, "[2]": {"system": "clonic convulsions induced by pentetrazole", "test": "clonic convulsions induced by pentetrazole in mice", "type": "in vivo", "method": "The inventors also assessed the effects of one of the non-imidazole compound they described in WO 00/06254, BF2-649 (3-(4-chlorophenyl)propyl 3-piperidinopropyl ether) at 10 mg/kg on clonic convulsions induced by pentetrazole in mice."}, "[3]": {"system": "intrahippocampal kainate-induced temporal lobe seizures", "test": "intrahippocampal kainate-induced temporal lobe seizures in mice, EEG", "type": "in vivo", "method": "Unilateral injection of kainic acid (1 nmol in 50 nl) into the dorsal hippocampus in mice induces a non-convulsive status that results in spontaneous recurrent focal seizures after 2-3 weeks. Seizures (5 to 20 times per hour in quiet mice) are characterized by a behavioural arrest and/or stereotypes, concomitant with spike and poly-spike discharges recorded in the injected hippocampus. […] This model reproduces the behavioural, EEG, pharmacological and histological characteristics of mesial temporal lobe epilepsy, a form of epilepsy which is often drug-resistant in humans. After a recovery period, implanted mice (for EEG recordings) were injected with kainic acid. They were EEG recorded at least 3 weeks after injection for selection of animals with consistent hippocampal seizure. Then, after a 20 min reference recording period, selected mice received either 3-(4-Chlorophenyl)propyl 3-piperidinopropyl ether (10 or 20 mg/kg i.p.) or saline and the recording was continued for 60 min. Treatments were given in a counter balanced order (after a one week washout period between two sessions)."}, "[4]": {"system": "GAERS (Genetic Absence Epilepsy, Rat from Strasbourg)", "test": "GAERS rat genetic model of absence epilepsy, EEG spike-and-wave discharges", "type": "in vivo", "method": "In a rat genetic model of human epilepsy (particularly of “absence” epilepsy in children and adults), the GAERS (Genetic Absence Epilepsy, Rat from Strasbourg; Vergnes et al, Epilepsy Res. 1989; 4, 8-13), 3-(4-Chlorophenyl)propyl 3-piperidinopropyl ether diminished by up to 77% the number and duration of spike-and-wave discharges, i.e. characteristic EEG changes of the disorder, at a dose of 20 mg/kg. In this strain of Wistar rats with spontaneous generalized non convulsive seizures (absence seizures), seizures are characterized by bilateral and synchronous spike-and-wave discharges (7-9 Hz) on EEG, concomitant with behavioural arrests. These discharges generally last about 20 sec and occur spontaneously every minute when the animals are in a state of quiet wakefulness. Pharmacological reactivity of this model is similar to human absence-epilepsy (e.g., valproate and ethosuccimide are protective). After a recovery period, implanted rats (cortical and hippocampal EEG electrodes) were recorded over a 20 min reference period. Then, 3-(4-Chlorophenyl)propyl 3-piperidinopropyl ether (5 or 20 mg/kg, i.p.) or saline were administered (n=8 per group) and the EEG recording was continued for 60 min. Rats received the alternate treatment one week later. Cumulated duration of absence-seizures was measured by 20 min periods during the two sessions."}, "[5]": {"system": "high-frequency cortical rhythms (EEG)", "test": "EEG rhythms in healthy human volunteers", "type": "in vivo", "excerpt": "In healthy human volunteers, orally-administered 3-(4-Chlorophenyl)propyl 3-piperidinopropyl ether dose-dependently elicited electroencephalographic changes (i.e. enhanced high-frequency cortical rhythms at the expense of low-frequency rhythms) which are regarded as predictory of facilitated thalamo-cortical activation and inhibition of pathological synchronisation underlying spike-wave discharges in epileptic states (Avanzini et al, Clinical Neurophysiol, 2000, 111, Suppl 2, S19). Groups of 6 male subjects received 40-120 mg 3-(4-Chlorophenyl)propyl 3-piperidinopropyl ether orally."}, "[6]": {"system": "photo paroxymal response (PPR)", "test": "photosensitivity model, intermittent photic stimulation (IPS) in epileptic patients", "type": "in vivo, human", "excerpt": "Photosensitivity, defined as a generalized epileptiform reaction on intermittent photic stimulation (IPS) outlasting the stimulus train is found in about 5% of epileptic patients (Kasteleijn-Nolst trenité DGA. Acta Neurol Scand, 1989; 80:1-149). Unlike most other epilepsies, photosensitive epilepsy is a reflex epilepsy and epileptiform discharges can be evoked at any time by IPS in the laboratory. By determination of both upper and lower sensitivity limits (frequencies per flash) a so-called photosensitivity range can be determined. This range is related to liability of seizures in daily life of the patient. This photosensitivity range is relatively stable within a patient and can be diminished of abolished by antiepileptic medication. […] Furthermore, it is possible to explore the time, onset and duration of the effect, a dose-response relationship and to document serum concentration-time profiles of the study drug. […] The single blind design was chosen in order to reduce comparison bias of IPS response observed after treatment with 3-(4-Chlorophenyl)propyl 3-piperidinopropyl ether administration at Day 2 with placebo evaluation at Day 1. Five single doses will be studied (10 to 90 mg). the margin of safety was determined from the nonclinical and clinical experiments with 3-(4-Chlorophenyl)propyl 3-piperidinopropyl ether."}, "[7]": {"system": "electrically-driven convulsions", "conditions": "in vivo; cited from earlier work"}, "[8]": {"system": "pentetrazole-induced convulsions", "conditions": "mice and rats; cited from earlier work"}, "convulsions": {"system": "convulsions", "conditions": "rodents; cited from earlier work"}, "H3-receptor": {"system": "H3-receptor", "conditions": "cited from earlier work"}, "[9]": {"system": "intrahippocampal kainate-induced temporal lobe seizures", "conditions": "mice; cited from earlier work"}, "[10]": {"system": "GAERS (Genetic Absence Epilepsy, Rat from Strasbourg)", "conditions": "in vivo; cited from earlier work"}, "[11]": {"system": "amygdaloid-kindled seizures", "conditions": "rats; cited from earlier work"}, "seizure susceptibility": {"system": "seizure susceptibility", "conditions": "mice; cited from earlier work"}},
  "data": [
    {"smiles": "Clc1ccc(CCCOCCCN2CCCCC2)cc1", "note": "[3-(4-chlorophenyl)propyl 3-piperidinopropyl ether]", "values": [
      {"measurement": "tolerability", "setting": "[1]", "value": "perfectly well tolerated"},
      {"measurement": "reduction of seizures frequency", "setting": "[1]; add-on, in a significant number of patients", "value": 50, "unit": "%"},
      {"measurement": "modification (enhancement) of anticonvulsive properties of established antiepileptic drugs", "setting": "[2]; 10 mg/kg with carbamazepine, sodium valproate, phenyloin, diazepam, Phenobarbital", "value": "did not modify"},
      {"measurement": "preventing the convulsion (latency or duration)", "setting": "[2]; 10 mg/kg, mice, pentetrazole", "value": "ineffective"},
      {"measurement": "frequency of discharges", "setting": "[3]; 10 or 20 mg/kg i.p., mice", "value": "reduced significantly"},
      {"measurement": "modification of interictal EEG profiles (non specific sedative effect)", "setting": "[3]; 10 or 20 mg/kg i.p., mice", "value": "without any significant modification"},
      {"measurement": "hippocampal seizures, number and duration", "setting": "[3]; kainate mice", "value": "reducing both the number and duration of seizures"},
      {"measurement": "diminution of number and duration of spike-and-wave discharges", "setting": "[4]; 20 mg/kg i.p., GAERS rats", "value": "up to 77%"},
      {"measurement": "spike and wave discharges at 20 min", "setting": "[4]; 20 mg/kg, 20 min", "value": "total suppression"},
      {"measurement": "spike and wave discharges at 1 h", "setting": "[4]; 20 mg/kg, 1 h", "value": "nearly total suppression"},
      {"measurement": "EEG response after repeated dosing", "setting": "[5]; 40 mg for 1 week", "value": "enhancement of the response observed on single administration"},
      {"measurement": "fast EEG activities", "setting": "[5]; 40-120 mg orally, single dose, anterior leads, dose-dependent", "value": "significant enhancement of fast activities"},
      {"measurement": "suppression of PPR", "setting": "[6]; 20 mg, four patients", "value": "one patient showed total suppression"},
      {"measurement": "duration of total PPR suppression", "setting": "[6]; 20 mg, one patient", "value": 6, "unit": "h"},
      {"measurement": "suppression of PPR", "setting": "[6]; 40 mg, four patients", "value": "one showed partial suppression of PPR and one total suppression of PPR"},
      {"measurement": "duration of effect", "setting": "[6]; 60 mg", "value": "more than 8 hours"},
      {"measurement": "onset of effect post administration", "setting": "[6]; 60 mg", "value": "1 to 2", "unit": "h"},
      {"measurement": "clinical response", "setting": "[6]; 60 mg, four patients", "value": "clinical response in all four patients"},
      {"measurement": "total suppression of PPR", "setting": "[6]; 60 mg, four patients", "value": "two patients showed total suppression of PPR"},
      {"measurement": "longest duration of effect", "setting": "[6]; 60 mg, one patient", "value": "up to 36 hours"},
      {"measurement": "tolerability of addition to conventional antiepileptic drugs", "setting": "[6]; add-on to Depakine, Tegretol, Keppra, Lamictal", "value": "well tolerated"},
      {"measurement": "EEG changes triggered by repetitive photic stimulation", "setting": "[6]; single dose, photosensitive patients", "value": "dose-dependently suppressed"}
    ]},
    {"smiles": "C(=NC12CC3CC(CC(C3)C1)C2)N1CCC(c2cnc[nH]2)CC1.Cl.Cl", "note": "[AQ0145]", "values": [
      {"measurement": "effect on electrically-driven convulsions", "setting": "[7]", "value": "reduce electrically-driven convulsions"},
      {"measurement": "effect on pentetrazole-induced convulsions", "setting": "[8]", "value": "prevent pentetrazole-induced convulsions"}
    ]},
    {"smiles": "N[C@@H](Cc1c[nH]cn1)C(=O)O", "note": "[L-histidine]", "values": [
      {"measurement": "protection from convulsions", "setting": "convulsions", "value": "tend to protect rodents from convulsions"}
    ]},
    {"smiles": "CNCCc1ccccn1", "note": "[betahistine]", "values": [
      {"measurement": "potency of H3-receptor antagonism", "setting": "H3-receptor", "value": "only very low potency"}
    ]},
    {"smiles": "NC(=O)N1c2ccccc2C=Cc2ccccc21", "note": "[carbamazepine]", "values": [
      {"measurement": "effect of antiepileptic drugs on kainate-induced seizures", "setting": "[9]", "value": "without significant effects"}
    ]},
    {"smiles": "NC(=NCc1ccc(Cl)cc1)SCCCc1cnc[nH]1", "note": "[clobenpropit]", "values": [
      {"measurement": "effect on electrically-driven convulsions", "setting": "[7]", "value": "reduce electrically-driven convulsions"},
      {"measurement": "effect on pentetrazole-induced convulsions", "setting": "[8]", "value": "prevent pentetrazole-induced convulsions"}
    ]},
    {"smiles": "CN(C)CCCSC(=N)N", "note": "[dimaprit]", "values": [
      {"measurement": "potency of H3-receptor antagonism", "setting": "H3-receptor", "value": "only very low potency"}
    ]},
    {"smiles": "CCC1(C)CC(=O)NC1=O", "note": "(stereo not shown) [ethosuccimide]", "values": [
      {"measurement": "pharmacological reactivity of the GAERS model", "setting": "[10]", "value": "protective"}
    ]},
    {"smiles": "NCCc1c[nH]cn1", "note": "[histamine]", "values": [
      {"measurement": "protection from convulsions", "setting": "convulsions", "value": "tend to protect rodents from convulsions"}
    ]},
    {"smiles": "CC[C@@H](C(N)=O)N1CCCC1=O", "note": "[levetiracetam]", "values": [
      {"measurement": "effect of antiepileptic drugs on kainate-induced seizures", "setting": "[9]", "value": "without significant effects"}
    ]},
    {"smiles": "Cc1nc(N)nc(N)c1-c1ccc(Cl)c(Cl)c1", "note": "[metoprine]", "values": [
      {"measurement": "protection from convulsions", "setting": "convulsions", "value": "tend to protect rodents from convulsions"}
    ]},
    {"smiles": "c1ccc(C2(N3CCCCC3)CCCCC2)cc1", "note": "[phencyclidine]", "values": [
      {"measurement": "potency of H3-receptor antagonism", "setting": "H3-receptor", "value": "only very low potency"}
    ]},
    {"smiles": "O=C1NC(=O)C(c2ccccc2)(c2ccccc2)N1", "note": "[phenyloin]", "values": [
      {"measurement": "effect of antiepileptic drugs on kainate-induced seizures", "setting": "[9]", "value": "without significant effects"}
    ]},
    {"smiles": "S=C(NC1CCCCC1)N1CCC(c2cnc[nH]2)CC1", "note": "[thioperamide]", "values": [
      {"measurement": "effect on electrically-driven convulsions", "setting": "[7]", "value": "reduce electrically-driven convulsions"},
      {"measurement": "effect on pentetrazole-induced convulsions", "setting": "[8]", "value": "prevent pentetrazole-induced convulsions"},
      {"measurement": "effect on amygdaloid-kindled seizures", "setting": "[11]", "value": "ineffective"},
      {"measurement": "effect on seizure susceptibility", "setting": "seizure susceptibility", "value": "failed to affect seizure susceptibility"}
    ]}
  ]
}
